{"source": "patent US9393255B2", "about": "“Pharmaceutical compositions of cytidine analogs and methods of use thereof” (Celgene Corporation, priority 2011, dated 2016)", "key": {"MDS, AML, CML, ALL, NHL": {"system": "MDS, AML, CML, ALL, NHL", "conditions": "treatment of MDS; cited from earlier work"}, "[1]": {"experiment": "aqueous degradation kinetics of 5-azacytidine (solution and suspension)", "type": "physicochemical", "description": "The aqueous degradation kinetics of 5-azacytidine was evaluated. […] At lower temperatures, the degradation of 5-azacytidine is slower."}, "[2]": {"experiment": "aqueous solubility of 5-azacytidine", "type": "physicochemical", "conditions": "water", "description": "In one embodiment, the reconstituted liquid dosage form is allowed to warm to room temperature (e.g., within a period of less than about 30 minutes) before parenteral use. […] In some embodiments, when the dosage form is at room temperature, about one-half of 5-azacytidine is dissolved, with about the other half present as solid in the suspension.\n(§1) Generally at lower temperature a smaller amount of 5-azacytidine may be dissolved in water."}, "[3]": {"experiment": "cold water reconstitution of Vidaza with refrigerated storage: potency, redispersibility time, appearance (Example F)", "type": "physicochemical", "conditions": "for stability time (not more than 3% loss of potency from Time 0): cold WFI (2-8° C.) reconstitution, refrigerated (2-8° C.) storage", "description": "Sterility testing was performed at the end of the study. Stability of azacitidine was defined in this study as not more than 3% loss of potency from Time 0 (e.g., baseline).\nAnalytical methods and stability testing: The potency of azacitidine was determined by quantitating the sample against an external standard utilizing reverse phase chromatography with UV detection, in accordance with ICH guidelines. The determination of suspension appearance for redispersibility time was performed visually, in accordance with ICH guidelines.\nStability testing of azacitidine was performed by utilizing validated regulatory accepted analytical methods in accordance with ICH guidelines. These studies were conducted at conditions which encompass long-term, intermediate and accelerated storage of the drug product over a period of time.\nMaterials and methods: Two lots of sterile commercial scale azacitidine drug product, each nearing the end of their expiry period of 48 months, were used for the study. Each lot of drug product was prepared as a homogeneous mixture of lyophilized powder and placed in labeled vials in preparation for reconstitution. Vials from each lot of azacitidine drug product were then reconstituted with 4 mL of refrigerated (2-8° C.) WFI and immediately placed in refrigerated storage (2-8° C.). After refrigerated storage for 16, 18, 20, and 22 hours, reconstituted vials of azacitidine were removed from refrigeration and placed at 25° C. for 30 minutes. Equilibration time to 25° C. for refrigerated azacitidine suspension was determined to be 30 minutes. […] Stability of azacitidine was defined in this study as not more than 3% loss of potency from Time 0 (e.g., baseline). Sterility of the refrigerated drug product was assessed for reconstituted vials stored at 2-8° C. at end of study."}, "[4]": {"experiment": "stability of 5-azacytidine suspension reconstituted with cold Water for Injection, stored refrigerated or frozen (Example E)", "type": "physicochemical", "description": "The reconstituted suspension of 5-azacytidine was then stored either refrigerated or frozen.\nIn one experiment, the suspension was stored at a temperature of between about 2° C. and about 8° C. for up to 72 hours, and then warmed to about 25° C. over a period of about 30 minutes. In another experiment, the suspension was stored at a temperature of about −20° C. for up to 7 days, and then thawed and stored refrigerated for up to 48 hours, and then warmed to about 25° C. over a period of about 30 minutes.\nThe dry lyophilized powder was stored in the vials under normal conditions for about 48 months prior to use in this experiment.\nThe contents of the vials were reconstituted with cold Water for Injection. Prior to reconstitution, the Water for Injection was stored refrigerated for at least 24 hours. All vials were reconstituted into an opaque, white suspension within 20 seconds.\nThe vials were stored at conditions described above for a certain time. The contents of all vials were re-dispersed into an opaque, white suspension within 20 seconds of shaking after each storage conditions or time points described in this example."}, "pKa of 5-azacytidine": {"experiment": "pKa of 5-azacytidine", "type": "physicochemical", "conditions": "25° C.", "description": "as §1"}, "[5]": {"experiment": "human pharmacokinetics of 5-azacytidine after SC or IV dosing", "type": "in vivo"}, "[6]": {"experiment": "cold water reconstitution of Vidaza with frozen storage, Study 2: HPLC assay, redispersion time, appearance (Example G)", "type": "physicochemical", "conditions": "reconstituted with refrigerated WFI, stored frozen (−20° C.)", "description": "The study was performed in a similar fashion as Example F, and the cold water reconstituted suspension was then stored under frozen conditions. […] A study to determine the thawing time of the frozen suspensions at 25° C. was also conducted.\nTesting was performed using two lots of homogenized drug product. […] The second study analyzed the reconstituted drug product after storage of reconstituted drug product at −20° C. utilizing hold times of 24, 48, and 72 hours followed by a post hold time of 45 minutes at 25° C. to allow for thawing as determined in the first study.\nAnalytical Methods: The amount of azacitidine and related impurities contained in azacitidine samples was determined utilizing High Performance Liquid Chromatography (HPLC). Two methods were used to complete this testing. […] Reconstitution and redispersibility times were determined in a manner similar to that as described in Example F. Appearance of the suspension was determined visually. […]\nAn appropriate number of homogenized azacitidine drug product vials were reconstituted with refrigerated WFI as described above, and placed in a freezer (−20° C.). […] After thawing, the contents of the vials were analyzed, for example, by HPLC. […] In addition to the frozen vials, a set of drug product vials were reconstituted and diluted, and immediately analyzed for use as T0 (baseline). […]"}, "higher-risk MDS": {"system": "higher-risk MDS", "conditions": "Phase III, subcutaneous, subjects with higher-risk MDS; cited from earlier work"}, "leukemic mouse model": {"system": "leukemic mouse model", "experiment": "activity and toxicity of degradation products in a leukemic mouse model", "type": "in vivo"}}, "note": "“Also recorded” adds a separate entry of the source."}
{"compound": "Nc1ncn([C@H]2C[C@H](O)[C@@H](CO)O2)c(=O)n1", "note": "[5-aza-2′-deoxycytidine]", "values": [{"measurement": "anti-tumor activity in clinical trials", "setting": "MDS, AML, CML, ALL, NHL", "value": "significant anti-tumor activity"}]}
{"compound": "Nc1ncn([C@@H]2O[C@H](CO)[C@@H](O)[C@H]2O)c(=O)n1", "note": "[5-azacytidine, 4-amino-1-β-D-ribofuranosyl-1,3,5-triazin-2(1H)-one]", "values": [{"measurement": "Degradation Rate", "setting": "[1]; Solution, 2° C. to 8° C.", "value": 0.7, "unit": "% per hour"}, {"measurement": "Degradation Rate", "setting": "[1]; Solution, 25° C.", "value": 2.8, "unit": "% per hour"}, {"measurement": "Degradation Rate", "setting": "[1]; Suspension, 2° C. to 8° C.", "value": 0.1, "unit": "% per hour"}, {"measurement": "Degradation Rate", "setting": "[1]; Suspension, 25° C.", "value": 2.5, "unit": "% per hour"}, {"measurement": "solubility", "setting": "[2]; 5° C.", "value": "~6.4", "unit": "mg/mL"}, {"measurement": "solubility", "setting": "[2]; 25° C.", "value": "~14", "unit": "mg/mL"}, {"measurement": "anti-tumor activity in clinical trials", "setting": "MDS, AML, CML, ALL, NHL", "value": "significant anti-tumor activity"}, {"measurement": "redispersion time", "setting": "[3]; 16, 18, 20 and 22 hr refrigerated storage and 30 minutes equilibration to 25° C.", "value": 0.3, "unit": "min"}, {"measurement": "appearance of suspension", "setting": "[3]; 16, 18, 20 and 22 hr refrigerated storage and 30 minutes equilibration to 25° C., listed as Azacitidine", "value": "fine white particles in suspension"}, {"measurement": "appearance of suspension", "setting": "[3]; 16, 18, 20 and 22 hr refrigerated storage and 30 minutes equilibration to 25° C., listed as azacitidine", "value": "fine white particles in suspension and the absence of clumps"}, {"measurement": "stability time (not more than 3% loss of potency from Time 0)", "setting": "[3]; listed as Azacitidine", "value": "about 22 hours"}, {"measurement": "stability time (not more than 3% loss of potency from Time 0)", "setting": "[3]; listed as azacitidine", "value": 22, "unit": "h"}, {"measurement": "prolongation of stability time versus usual reconstitution", "setting": "[3]; cold WFI reconstitution with refrigerated storage, 8 to 22 hours, listed as azacitidine", "value": "about a threefold prolongation; also recorded: nearly threefold"}, {"measurement": "maximum loss of potency", "setting": "[3]; cold water (2-8° C.) reconstitution, refrigerated storage baseline to 22 hr, 30 minutes equilibration to 25° C., each of the two lots", "value": 2.7, "unit": "%"}, {"measurement": "degradation on frozen storage", "setting": "[4]; reconstituted with cold Water for Injection, stored frozen, for at least 7 days", "value": "no significant degradation"}, {"measurement": "Degradation Rate", "setting": "[4]; suspension reconstituted with cold Water for Injection, stored refrigerated", "value": "about 0.12 % w/w per hour"}, {"measurement": "pKa", "setting": "pKa of 5-azacytidine; higher of the two pKa values", "value": "~10.2"}, {"measurement": "pKa", "setting": "pKa of 5-azacytidine; lower of the two pKa values", "value": "~2.8"}, {"measurement": "Cmax for SC dosing", "setting": "[5]; SC", "value": "rapid"}, {"measurement": "bioavailability", "setting": "[5]; in vivo, subcutaneous, SC vs IV, read-out: relative bioavailability of SC dose (relative to IV dose)", "value": "~90", "unit": "%"}, {"measurement": "stability time under frozen storage", "setting": "[6]", "value": "up to 72 hours"}, {"measurement": "survival and time to AML transformation or death", "setting": "higher-risk MDS", "value": "significantly prolonged survival and time to AML transformation or death"}]}
{"compound": "NC(N)=NC(=O)N[C@@H]1O[C@H](CO)[C@@H](O)[C@H]1O", "note": "[secondary degradation product, guanylribosylurea]", "values": [{"measurement": "activity", "setting": "leukemic mouse model; dosed at 1440 mg/m^2", "value": "neither activity nor toxicity"}, {"measurement": "toxicity", "setting": "leukemic mouse model; dosed at 1440 mg/m^2", "value": "neither activity nor toxicity"}]}
{"compound": "N=C(NC=O)NC(=O)N[C@@H]1O[C@H](CO)[C@@H](O)[C@H]1O", "note": "[primary degradation product, N-formylguanyribosylurea]", "values": [{"measurement": "activity relative to 5-azacytidine", "setting": "leukemic mouse model; dosed at about 240 mg/m^2", "value": "about 25%"}, {"measurement": "toxicity relative to 5-azacytidine", "setting": "leukemic mouse model; dosed at about 240 mg/m^2", "value": "about 25%"}]}
